Literature values, collected in patent US6696413B2 (Hexal AG, priority 1995, dated 2004).

Settings: 16 hours after application of 300 μg of a 5 percent vitamin E solution in ethanol per cm^2

## vitamin E
  vitamin E found in the horny layer: 10.7%
  vitamin E found in underlying skin layers: about 40.9%
